Measurements: US20240294544A1, “NEW SUBSTITUTED PYRIDINES AS FUNGICIDES” (BASF SE, priority 2021, published 2024)

Assays:
Assay type in all cases: cell-based
Septoria tritici = assay: Comparative Example 1: activity against leaf blotch on wheat caused by Septoria tritici (microtiter plate); conditions: at 125 ppm; relative to compound-free control (100%); 405 nm, 7 days after inoculation
Protocol: (§1) The active compounds were formulated separately as a stock solution having a concentration of 10000 ppm in dimethyl sulfoxide. The stock solutions were mixed according to the ratio, pipetted onto a micro titer plate (MTP) and diluted with water to the stated concentrations. A spore suspension of Septoria tritici in an aqueous biomalt or yeast-bactopeptone-glycerine or DOB solution was then added. The plates were placed in a water vapor-saturated chamber at a temperature of 18° C. Using an absorption photometer, the MTPs were measured at 405 nm 7 days after the inoculation.
(§2) The measured parameters were compared to the growth of the active compound-free control variant (100%) and the fungus-free blank value to determine the relative growth in % of the pathogens in the respective active compounds.

Leptosphaeria nodorum = assay: Comparative Example 2: activity against wheat leaf spots caused by Leptosphaeria nodorum (microtiter plate); conditions: relative to compound-free control (100%), 405 nm, 7 days after inoculation
Protocol: as §1, with “Leptosphaeria nodorum” for “Septoria tritici”, “DOE” for “DOB”
as §2

[1] = tested on: Colletotrichum orbiculare; assay: Comparative Example 3: activity against anthracnose caused by Colletotrichum orbiculare in the microtiterplate test; conditions: at 2 ppm; relative to compound-free control (100%); 405 nm, 7 days after inoculation
Protocol: as §1, with “Colletotrichum orbiculare” for “Septoria tritici”, “bio malt” for “biomalt or yeast-bactopeptone-glycerine or DOB”
as §2

Botrytis cinerea = assay: Example 1: activity against the grey mold Botrytis cinerea in the microtiterplate test; conditions: 31 ppm active substance; relative to compound-free control (100%); 405 nm, 7 days after inoculation
Fusarium culmorum = assay: Example 2: activity against Fusarium culmorum in the microtiterplate test; conditions: 31 ppm active substance; relative to compound-free control (100%); 405 nm, 7 days after inoculation
Protocol: The active compounds were formulated separately as a stock solution having a concentration of 10000 ppm in dimethyl sulfoxide.
as §1, with “The” for “The active compounds were formulated separately as a stock solution having a concentration of 10000 ppm in dimethyl sulfoxide. The”, “Fusarium culmorum” for “Septoria tritici”
as §2

SMILES | Growth (%) at 125 pm (Septoria tritici) [%] | Growth (%) at 125 pm (Leptosphaeria nodorum) [%] | Growth (%) at 2 pm [1] [%] | growth of the pathogen (Botrytis cinerea) [%] | growth of the pathogen (Fusarium culmorum) [%]
CC1(c2ccc(Cl)cc2)N=C(c2ccc(Cl)nc2)c2ccccc2O1 (stereo not shown) [reference compound] | 69 | 47 | 88 |  | 
CC1(Cc2ccc(F)cc2)N=C(c2ccc(Cl)nc2)c2ccccc2O1 (stereo not shown) [reference compound] | 93 | 43 | 96 |  | 
Cc1cc(C2=NC(C)(C(C)C)Oc3ccccc32)cnc1C (stereo not shown) [Ex-5] |  |  |  | 0 | 
Cc1cc(C2=NC3(CCC(C)(C)C3)Oc3ccccc32)cnc1C (stereo not shown) [Ex-4] |  |  |  | 0 | 1
Cc1cc(C2=NC(C)(C(C)(C)C)Oc3ccccc32)cnc1C(F)F (stereo not shown) [Ex-3] |  |  |  | 0 | 
Cc1cc(C2=NC(C)(c3ccc(Cl)cc3)Oc3ccccc32)cnc1C(F)F (stereo not shown) [Ex-51] | 46 | 15 | 22 |  | 
Cc1cc(C2=NC(C)(C(C)(C)C)Oc3ccccc32)cnc1C (stereo not shown) [Ex-2] |  |  |  | 0 | 
Cc1cc(C2=NC(C)(Cc3ccc(F)cc3)Oc3ccccc32)cnc1C(F)F (stereo not shown) [Ex-58] | 73 | 8 | 55 |  | 
Cc1cc(C2=NC(C)(C)Oc3ccccc32)cnc1C [Ex-6] |  |  |  | 0 | 1
